{"source": "paper PMC11685430", "about": "(Nature Communications, 2024)", "key": {"[1]": {"test_system": "adenosine receptor subtypes (A1R, A2AR, A2BR, A3R)", "type": "in vivo, mouse", "conditions": "i.t. 10 nmol"}, "A1R": {"test_system": "A1R", "assay": "Reversal of JH-ENT-01 analgesia by A1R antagonist in STZ-treated mice", "type": "in vivo, mouse", "conditions": "i.t. 10 nmol, 30 min prior to JH-ENT-01 10 nmol"}, "[2]": {"test_system": "spinal dorsal horn outer lamina II (IIo) neurons", "assay": "Patch clamp recording of sEPSCs in spinal cord slices of naive mice", "type": "cell-based, mouse", "conditions": "DPCPX alone 1 μM"}, "[3]": {"test_system": "mice with STZ-induced diabetic neuropathy", "assay": "Survival of STZ mice after repeated injections", "type": "in vivo, mouse"}, "mice [4]": {"test_system": "mice", "assay": "Rotarod test before and 60 min after i.t. delivery", "type": "in vivo, mouse", "conditions": "60 min after i.t. 100 nmol"}, "mice [5]": {"test_system": "mice", "assay": "Electrocardiogram", "type": "in vivo, mouse"}, "[6]": {"assay": "Plasma and tissue pharmacokinetics after subcutaneous administration", "type": "in vivo", "conditions": "male, CD-1, mouse, plasma, sc"}, "[7]": {"test_system": "mice, formalin-induced inflammatory pain", "assay": "Formalin-induced acute inflammatory pain", "type": "in vivo, mouse", "conditions": "i.t., JH-ENT-01 1, 10, 100 nmol, dilazep 100 nmol"}, "[8]": {"test_system": "mice with STZ-induced diabetic neuropathy", "assay": "STZ-induced diabetic neuropathy, mechanical pain", "type": "in vivo, mouse"}, "G154S hENT1": {"molecular_target": "T1, G154S hENT1 (Homo sapiens, UniProt Q99808, G154S)", "T1 sequence (Q99808 1-456 G154S)": "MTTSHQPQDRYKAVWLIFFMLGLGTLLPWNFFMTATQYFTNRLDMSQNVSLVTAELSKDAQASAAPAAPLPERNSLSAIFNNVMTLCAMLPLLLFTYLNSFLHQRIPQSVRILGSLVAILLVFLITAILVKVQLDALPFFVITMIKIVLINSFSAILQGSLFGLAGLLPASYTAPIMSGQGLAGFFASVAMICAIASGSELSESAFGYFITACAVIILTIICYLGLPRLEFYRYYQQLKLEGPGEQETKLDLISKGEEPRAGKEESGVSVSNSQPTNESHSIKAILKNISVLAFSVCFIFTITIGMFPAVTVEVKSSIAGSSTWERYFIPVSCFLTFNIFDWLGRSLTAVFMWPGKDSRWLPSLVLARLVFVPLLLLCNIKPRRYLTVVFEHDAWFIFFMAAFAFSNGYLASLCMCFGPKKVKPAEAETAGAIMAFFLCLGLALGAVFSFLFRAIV", "assay": "[3H]-adenosine uptake in oocytes expressing G154S hENT1", "type": "cell-based", "conditions": "Fig 1g"}, "[9]": {"test_system": "mice, CFA-induced inflammatory pain", "assay": "CFA-induced persistent inflammatory pain, von Frey test", "type": "in vivo, mouse", "conditions": "i.v., 10 mg/ml as printed; days 1, 3, 5 after CFA"}}}
{"smiles": "CCCn1c(=O)c2[nH]c(C3CCCC3)nc2n(CCC)c1=O", "note": "[DPCPX]", "values": [{"measurement": "reversal of JH-ENT-01 analgesia", "setting": "[1]", "result": "reversal"}, {"measurement": "effect on analgesic action of JH-ENT-01 (PWT)", "setting": "A1R", "result": "prevented"}, {"measurement": "sEPSC frequency and amplitude", "setting": "[2]", "result": "no effects on sEPSC frequency and amplitude"}]}
{"smiles": "COc1cc(C(=O)OCCCN2CCCN(CCCOC(=O)c3cc(OC)c(OC)c(OC)c3)CC2)cc(OC)c1OC", "note": "[dilazep]", "values": [{"measurement": "death / survival of mice", "setting": "[3]; i.v. 30 mg/kg, 3 injections", "result": "7 out of 16"}, {"measurement": "survival of mice", "setting": "[3]; s.c. 3 x 30 mg/kg", "result": "all mice survived"}, {"measurement": "motor function in rotarod test", "setting": "mice [4]", "result": "no significant changes in the falling latency"}, {"measurement": "effect on heart rates", "setting": "mice [5]; i.p. 10 mg/kg and 30 mg/kg", "result": "no significant decrease"}, {"measurement": "effect on heart rates", "setting": "mice [5]; i.v. 30 mg/kg, first hour", "result": "significant decrease"}, {"measurement": "Cmax", "setting": "[6]", "result": 409, "unit": "ng/mL"}, {"measurement": "formalin-induced 2nd phase pain", "setting": "[7]", "result": "significant inhibition of phase 2 pain only when data from both sexes were combined"}, {"measurement": "formalin-induced phase 1 pain", "setting": "[7]; both sexes", "result": "not affected"}, {"measurement": "paw withdrawal threshold (PWT)", "setting": "[8]; i.t. 10 nmol", "result": "failed to elicit an increase in PWT"}, {"measurement": "paw withdrawal threshold (PWT)", "setting": "[8]; i.v. 30 mg/kg on days 8, 10, 12 after STZ", "result": "did not observe any analgesic effect"}, {"measurement": "neuropathic pain in the STZ model", "setting": "[8]; s.c. 3 x 30 mg/kg", "result": "no effects"}, {"measurement": "preferential inhibition of wild type hENT1 over G154S", "setting": "G154S hENT1", "result": "did not show any preference"}, {"measurement": "paw withdrawal frequency (PWF)", "setting": "[9]", "result": "no effects"}, {"measurement": "paw withdrawal threshold (PWT)", "setting": "[9]", "result": "no effects"}]}
